Laboratory results from publication PMC6289163 (Tuberculosis (Edinburgh, Scotland), 2018).

System: clinical MDR isolate (TB4001)
Type: cell-based, Mycobacterium tuberculosis

CO[C@H]1/C=C/O[C@@]2(C)Oc3c(C)c(O)c4c(O)c(c(/C=N/N5CCN(C)CC5)c(O)c4c3C2=O)NC(=O)/C(C)=C\C=C\[C@H](C)[C@H](O)[C@@H](C)[C@@H](O)[C@@H](C)[C@H](OC(C)=O)[C@@H]1C [Rifampicin]
resistance of TB4001: resistant

NNC(=O)c1ccncc1 [Isoniazid]
resistance of TB4001: resistant
